Source: the NIST ThermoML archive (doi:10.1021/je500116z)
± gives the expanded uncertainty stated by the source.

Settings: Liquid, Ebulliometric method (Recirculating still)

Row | Structure (SMILES) | vapor or sublimation pressure (288.15 K) [kPa] | vapor or sublimation pressure (298.15 K) [kPa] | vapor or sublimation pressure (308.15 K) [kPa]
1 | CC(C)CCl [1-chloro-2-methylpropane] | 13 ± 0.097 | 20.35 ± 0.13 | 30.45 ± 0.17
2 | CC(C)(C)Cl [2-chloro-2-methylpropane] | 26.42 ± 0.16 | 40.13 ± 0.22 | 59.52 ± 0.3
3 | CCC(C)Cl (configuration not stated) [2-chlorobutane] | 13.36 ± 0.099 | 20.91 ± 0.13 | 31.55 ± 0.18
4 | CCCCCC [hexane] | 12.89 ± 0.097 | 20.22 ± 0.13 | 30.7 ± 0.17
